Measurements from publication PMC5424641 (Biomolecules & Therapeutics, 2017).
pKi: −log10 of the molar value. Where a name gives a salt, the structure may show the parent alone. Read-outs that look alike come from different tables or passages of the source.

What was measured:
[1] = biological target: T1, urotensin II receptor (hUT) (Homo sapiens, UniProt Q9UKP6); experiment: radioligand binding assay
T1 sequence (Q9UKP6 1-389): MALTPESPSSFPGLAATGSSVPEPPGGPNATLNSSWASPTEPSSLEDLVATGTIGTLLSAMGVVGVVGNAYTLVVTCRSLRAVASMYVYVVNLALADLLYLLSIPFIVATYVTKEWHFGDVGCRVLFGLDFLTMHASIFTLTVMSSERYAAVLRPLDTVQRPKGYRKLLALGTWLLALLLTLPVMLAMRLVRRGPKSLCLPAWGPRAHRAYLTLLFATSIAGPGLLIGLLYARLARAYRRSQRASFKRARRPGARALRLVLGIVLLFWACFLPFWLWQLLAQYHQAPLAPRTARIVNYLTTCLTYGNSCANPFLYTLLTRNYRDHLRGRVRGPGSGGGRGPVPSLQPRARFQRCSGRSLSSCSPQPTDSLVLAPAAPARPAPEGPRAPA

[2] = biological target: T1, urotensin II receptor (hUT); experiment: radioligand binding assay; remark: listed apart in the source

Compound | pKi [1] | pKi [2]
CN(C(=O)CN1C(=O)COc2cc(Cl)c(Cl)cc21)[C@@H](CN1CCOCC1)c1ccc(-c2ccc(C(=O)O)cc2)cc1 [GSK-1440115, 4′-[(1R)-1-[[(6,7-dichloro-3-oxo-2,3-dihydro-4H-1,4-benzoxazin-4-yl)acetyl](methyl)amino]-2-(4-morpholinyl)ethyl]-4-biphenylcarboxylic acid trifluoroacetate] | 7.51 | –
O=C(NC1CCN(Cc2ccc(OC3CCNCC3)c(Br)c2)CC1)c1csc2ccccc12 [KR-36996, N-(1-(3-bromo-4-(piperidin-4-yloxy)benzyl)piperidin-4-yl)benzo[b]thiophene-3-carboxamide] | – | 8.40
